Among the data in patent US12612412B2, “Antiviral heterocyclic compounds” (Enanta Pharmaceuticals, Inc., priority 2021, dated 2026) are EC50 values, retold here.

What is called EC50 is the midpoint of the concentration-response curve.

Assay [1] deals with HMPV clinical isolate TN/1501/A1. As to the kind of experiment: HMPV antiviral assay Method-B (clinical isolate TN/1501/A1 in LLC-MK2 cells, ATP-Lite readout). As to conditions: hMPV WT1501 (clinical isolate TN/1501/A1), 6 days. In kind it is cell-based, Human metapneumovirus (HMPV). A digest of the protocol: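 LLC-MK2 cells infected in suspension with TN/1501/A1 at MOI 0.014 in serum-free medium with 2 μg/mL TPCK-trypsin (final), incubated 6 days at 37° C. Compounds tested in duplicate, 10-point 3-fold dilutions from 10 μM. Cell health read by ATP-Lite luminescence, normalised to virus-only and cells-only controls; EC50 by four-parameter logistic fit.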

Assay [2] deals with genotype A, "Long" strain RSV. As to the kind of experiment: RSV-A assay (CPE protection in Hep-2 cells, ATPlite readout). In kind it is cell-based, Human respiratory syncytial virus (HRSV). The settings on record: RSV-A Long strain, MOI 0.1, CPE protection, read-out: Human RSV-A (“Long”) EC50. A digest of the protocol:
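In this cytopathic-effect protection format, infected Hep-2 cultures (MOI 0.1) are exposed to compound for 5 days. Surviving cell ATP is quantified with ATPlite, and EC50 is determined.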
(Cellular ATP, detected with luciferase, serves as a proxy for viable cell number.)

Setting [3] is: human metapneumovirus, LLC-MK2, 144 h.
Setting [4] is: human respiratory syncytial virus.

Read-outs that look alike come from different tables or passages of the source.

Take `COc1cc(C(=O)NC[C@](O)(c2cc3c(c(-c4c(F)ccc(Cl)c4F)n2)OC[C@]3(C)C(N)=O)C2CC2)cc2cc(Cl)c(C)nc12` [Example 1168]: the results for the EC50 in assay [1] (setting [3]) and in assay [2] (setting [4]) were less than 500 nM and less than 200 nM, respectively.
Regarding `COc1cc(C(=O)NC[C@](O)(c2cc3c(c(-c4c(F)ccc(Cl)c4F)n2)OC[C@]3(C)C(N)=O)C2CC2)cc2cc(Br)c(C)nc12` [Example 1169], the values for the EC50 in assay [1] (setting [3]) and in assay [2] (setting [4]) were less than 500 nM and less than 200 nM, respectively.
Turning to `COc1cc(C(=O)NC[C@](O)(c2cc3c(c(-c4ccc(F)cc4)n2)OC[C@]3(C)C(=O)NCC(C)(C)O)C(F)(F)F)cc2cn(C3CC3)nc12` [Example 1170], the EC50 was more than 500 nM in assay [1] (setting [3]) and less than 200 nM in assay [2] (setting [4]).
Taken in the same sequence, the figures for `COc1cc(C(=O)NC[C@](O)(c2cc3c(c(-c4cc(F)c(Cl)cc4F)n2)OC[C@]3(C)C(N)=O)C2CC2)cc2cn(C3CC3)nc12` [Example 1177] were less than 500 nM and less than 200 nM.
`COc1cc(C(=O)NC[C@](O)(c2cc3c(c(-c4cc(F)c(Cl)cc4F)n2)OC[C@]3(C)C(N)=O)C2CC2)cc2cn(C(F)F)nc12` [Example 1178]: the EC50 in assay [1] (setting [3]) was less than 500 nM; in assay [2] (setting [4]), less than 200 nM.
Regarding `C[C@]1(C(N)=O)COc2c1cc([C@@](O)(CNC(=O)c1cc(Cl)c3nn(C4CC4)cc3c1)C1CC1)nc2-c1cc(F)c(Cl)cc1F` [Example 1179], the EC50 in assay [1] (setting [3]) is less than 500 nM; in assay [2] (setting [4]) it was less than 200 nM.
For `COc1cc(C(=O)NC[C@](O)(c2cc3c(c(-c4cc(F)c(Cl)cc4F)n2)OC[C@]3(C)C(N)=O)C2CC2)cc2cn(C3(F)CC3)nc12` [Example 1180], the results for the EC50 in assay [1] (setting [3]) and in assay [2] (setting [4]) were less than 500 nM and less than 200 nM, respectively.
As to `Cc1cnc2c(Cl)cc(C(=O)NC[C@](O)(c3cc4c(c(-c5cc(F)c(Cl)cc5F)n3)OC[C@]4(C)C(N)=O)C3CC3)cc2c1` [Example 1181], the EC50 in assay [1] (setting [3]) was less than 500 nM; in assay [2] (setting [4]), less than 200 nM.
In the same order, the values of `COc1cc(C(=O)NC[C@](O)(c2cc3c(c(-c4cc(F)c(Cl)cc4F)n2)OC[C@]3(C)C(N)=O)C2CC2)cc2cc(Cl)c(C)nc12` [Example 1182] are less than 500 nM and less than 200 nM.
`Cc1cnc2c(OC(F)F)cc(C(=O)NC[C@](O)(c3cc4c(c(-c5cc(F)c(Cl)cc5F)n3)OC[C@]4(C)C(N)=O)C3CC3)cc2c1` [Example 1183]: the EC50 in assay [1] (setting [3]) was less than 500 nM; in assay [2] (setting [4]) it was less than 200 nM.
As for `COc1cc(C(=O)NC[C@](O)(c2cc3c(c(-c4ccc(F)c(F)c4Cl)n2)OC[C@]3(C)C(N)=O)C2CC2)cc2cc(Br)c(C)nc12` [Example 1184], the results for the EC50 in assay [1] (setting [3]) and in assay [2] (setting [4]) were less than 500 nM and less than 200 nM, respectively.
In the case of `COc1cc(C(=O)NC[C@](O)(c2cc3c(c(-c4ccc(F)c(Cl)c4F)n2)OC[C@]3(C)C(N)=O)C2CC2)cc2cc(Br)c(Cl)nc12` [Example 1185], the EC50 was less than 500 nM in assay [1] (setting [3]) and less than 200 nM in assay [2] (setting [4]).
Taken in the same sequence, the figures for `Cc1nc2c(Cl)cc(C(=O)NC[C@](O)(c3cc4c(c(-c5ccc(F)c(F)c5Cl)n3)OC[C@]4(C)C(N)=O)C3CC3)cc2cc1Cl` [Example 1186] were less than 500 nM and less than 200 nM.
As to `Cc1cnc2c(Cl)cc(C(=O)NC[C@](O)(c3cc4c(c(-c5ccc(F)c(F)c5Cl)n3)OC[C@]4(C)C(N)=O)C3CC3)cc2c1` [Example 1187], the 50% effective concentration (EC50) in assay [1] (setting [3]) is less than 500 nM; in assay [2] (setting [4]), less than 200 nM.
In the same order, the values of `COc1cc(C(=O)NC[C@](O)(c2cc3c(c(-c4cc(Cl)ccc4F)n2)OC[C@]3(C)C(N)=O)C2CC2)cc2cn(C(F)F)nc12` [Example 1188] are less than 500 nM and less than 200 nM.
In the same order, the values of `COc1cc(C(=O)NC[C@](O)(c2cc3c(c(-c4cc(Cl)ccc4F)n2)OC[C@]3(C)C(N)=O)C2CC2)cc2cc(Br)c(C)nc12` [Example 1189] are less than 500 nM and less than 200 nM.
Taken in the same sequence, the figures for `CNC(=O)[C@@]1(C)COc2c1cc([C@@](O)(CNC(=O)c1cc(OC)c3nn(C4CC4)cc3c1)C(F)(F)F)nc2-c1ccc(F)cc1` [Example 1190] were less than 500 nM and less than 200 nM.
Regarding `CNC(=O)[C@@]1(C)COc2c1cc([C@@](O)(CNC(=O)c1cc(OC)c3nn(C(F)F)cc3c1)C(F)(F)F)nc2-c1ccc(F)cc1` [Example 1191], the results for the EC50 in assay [1] (setting [3]) and in assay [2] (setting [4]) were less than 500 nM and less than 200 nM, respectively.
In the same order, the values of `C[C@]1(C(N)=O)COc2c1cc([C@@](O)(CNC(=O)c1cc(OC3CC3)c3nc(Cl)ccc3c1)C(F)(F)F)nc2-c1ccc(F)cc1` [Example 1192] are more than 500 nM and less than 200 nM.
`C[C@]1(C(N)=O)COc2c1cc([C@@](O)(CNC(=O)c1cc(OC3CC3)c3nc(Cl)ccc3c1)C1CC1)nc2-c1ccc(F)cc1` [Example 1193]: the EC50 is more than 500 nM in assay [1] (setting [3]) and less than 200 nM in assay [2] (setting [4]).
Take `C[C@]1(C(N)=O)COc2c1cc([C@@](O)(CNC(=O)c1cc(OC3CC3)c3nc(Cl)ccc3c1)C1CC1)nc2-c1ccc(F)c(F)c1Cl` [Example 1194]: the concentration giving a half-maximal response (EC50) in assay [1] (setting [3]) was more than 500 nM; in assay [2] (setting [4]), less than 200 nM.
Take `COc1cc(C(=O)NC[C@](O)(c2cc3c(c(-c4ccc(F)c(F)c4Cl)n2)OC[C@]3(C)C(N)=O)C2CC2)cc2cc(C)cnc12` [Example 1195]: the figures for the EC50 in assay [1] (setting [3]) and in assay [2] (setting [4]) were less than 500 nM and less than 200 nM, respectively.
Taken in the same sequence, the figures for `COc1cc(C(=O)NC[C@](O)(c2cc3c(c(-c4ccc(F)c(F)c4Cl)n2)OC[C@]3(C)C(N)=O)C2CC2)cc2ccc(C)nc12` [Example 1196] were more than 500 nM and less than 200 nM.
As for `COc1cc(C(=O)NC[C@](O)(c2cc3c(c(-c4ccc5c(c4)OC(F)(F)C(F)(F)O5)n2)OC[C@]3(C)C(N)=O)C(F)(F)F)cc2cn(C3CC3)nc12` [Example 1218], the EC50 was more than 500 nM in assay [1] (setting [3]) and less than 200 nM in assay [2] (setting [4]).
Take `COc1cc(C(=O)NC[C@@](O)(c2cc3c(c(-c4ccc5c(c4)OC(F)(F)C(F)(F)O5)n2)OC[C@]3(C)C(N)=O)C(F)(F)F)cc2cn(C3CC3)nc12` [Example 1219]: the EC50 in assay [1] was more than 500 nM; in assay [2] it was less than 200 nM.
`COc1cc(C(=O)NC[C@](O)(c2cc3c(c(-c4cc(Br)c(F)cc4F)n2)OC[C@]3(C)C(N)=O)C(F)(F)F)cc2cn(C3CC3)nc12` [Example 1223]: the EC50 was less than 500 nM in assay [1] and less than 200 nM in assay [2] (setting [4]).
For `COc1cc(C(=O)NC[C@@](O)(c2cc3c(c(-c4cc5c(cc4Cl)OC(F)(F)O5)n2)OC[C@]3(C)C(N)=O)C(F)(F)F)cc2cn(C3CC3)nc12` [Example 1226], the EC50 is more than 500 nM in assay [1] (setting [3]) and less than 200 nM in assay [2] (setting [4]).
Taken in the same sequence, the figures for `COc1cc(C(=O)NC[C@](O)(c2cc3c(c(-c4cc5c(cc4Cl)OC(F)(F)O5)n2)OC[C@]3(C)C(N)=O)C(F)(F)F)cc2cn(C3CC3)nc12` [Example 1227] were less than 500 nM and less than 200 nM.
Taken in the same sequence, the figures for `COc1cc(C(=O)NC[C@](O)(c2cc3c(c(C4=CCC(F)(F)CC4)n2)OC[C@]3(C)C(N)=O)C(F)(F)F)cc2cn(C3CC3)nc12` [Example 1228] were more than 500 nM and less than 200 nM.
`COc1cc(C(=O)NC[C@@](O)(c2cc3c(c(C4=CCC(F)(F)CC4)n2)OC[C@]3(C)C(N)=O)C(F)(F)F)cc2cn(C3CC3)nc12` [Example 1229]: the figures for the EC50 in assay [1] (setting [3]) and in assay [2] (setting [4]) were more than 500 nM and more than 200 nM, respectively.
Taken in the same sequence, the figures for `COc1cc(C(=O)NC[C@@](O)(c2cc3c(c(-c4cc5c(cc4Cl)OC(F)(F)O5)n2)OC[C@]3(C)C(N)=O)C2CC2)cc2cn(C3CC3)nc12` [Example 1230] were more than 500 nM and more than 200 nM.
Turning to `COc1cc(C(=O)NC[C@](O)(c2cc3c(c(-c4cc5c(cc4Cl)OC(F)(F)O5)n2)OC[C@]3(C)C(N)=O)C2CC2)cc2cn(C3CC3)nc12` [Example 1231], the values for the EC50 in assay [1] (setting [3]) and in assay [2] (setting [4]) were less than 500 nM and less than 200 nM, respectively.
Taken in the same sequence, the figures for `COc1cc(C(=O)NC[C@@](O)(c2cc3c(c(-c4c(F)cccc4F)n2)OC[C@]3(C)C(N)=O)C(F)(F)F)cc2cn(C3CC3)nc12` [Example 1232] were more than 500 nM and more than 200 nM.
As to `COc1cc(C(=O)NC[C@](O)(c2cc3c(c(-c4c(F)cccc4F)n2)OC[C@]3(C)C(N)=O)C(F)(F)F)cc2cn(C3CC3)nc12` [Example 1233], the EC50 is more than 500 nM in assay [1] (setting [3]) and less than 200 nM in assay [2] (setting [4]).
Taken in the same sequence, the figures for `COc1cc(C(=O)NC[C@@](O)(c2cc3c(c(-c4c(F)cc(F)cc4Cl)n2)OC[C@]3(C)C(N)=O)C(F)(F)F)cc2cn(C3CC3)nc12` [Example 1234] were more than 500 nM and more than 200 nM.
Taken in the same sequence, the figures for `COc1cc(C(=O)NC[C@](O)(c2cc3c(c(-c4c(F)cc(F)cc4Cl)n2)OC[C@]3(C)C(N)=O)C(F)(F)F)cc2cn(C3CC3)nc12` [Example 1235] were less than 500 nM and less than 200 nM.
Taken in the same sequence, the figures for `COc1cc(C(=O)NC[C@](O)(c2cc3c(c(-c4ccccc4Cl)n2)OC[C@]3(C)C(N)=O)C(F)(F)F)cc2cn(C3CC3)nc12` [Example 1248] were less than 500 nM and less than 200 nM.
As to `COc1cc(C(=O)NC[C@](O)(c2cc3c(c(-c4ccc(-c5ccccc5)cc4)n2)OC[C@]3(C)C(N)=O)C(F)(F)F)cc2cn(C3CC3)nc12` [Example 1249], the figures for the EC50 in assay [1] (setting [3]) and in assay [2] (setting [4]) were more than 500 nM and more than 200 nM, respectively.
In the same order, the values of `COc1cc(C(=O)NC[C@](O)(c2cc3c(c(-c4ccccc4-c4ccccc4)n2)OC[C@]3(C)C(N)=O)C(F)(F)F)cc2cn(C3CC3)nc12` [Example 1250] are more than 500 nM and less than 200 nM.
